Measured values from patent publication US10508088B2, “Methods using HDAC11 inhibitors” (FORMA Therapeutics, Inc., priority 2016, dated 2019).

Target: Full length human recombinant HDAC11 (Homo sapiens (Human), UniProt Q96DB2)
Experiment: Enzymatic HDAC11 assay, electrophoretic mobility shift
Format: biochemical
Conditions: substrate FAM-RHKK(tri-fluor-Ac)-NH2, read-out: HDAC11 IC50 Range
Summary of the method: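 Baculovirus-expressed enzyme (10 nM) with 2 μM FAM-RHKK(tri-fluor-Ac)-NH2 in 100 mM HEPES pH 7.5, 25 mM KCl, 0.1% BSA, 0.01% Triton X-100, 1% DMSO at 25 °C. Substrate and product separated by microfluidic electrophoresis; inhibition from product/(substrate+product) ratio. IC50 by 4-parameter fit over 12 concentrations.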

Sequence of Full length human recombinant HDAC11 (Q96DB2 whole entry): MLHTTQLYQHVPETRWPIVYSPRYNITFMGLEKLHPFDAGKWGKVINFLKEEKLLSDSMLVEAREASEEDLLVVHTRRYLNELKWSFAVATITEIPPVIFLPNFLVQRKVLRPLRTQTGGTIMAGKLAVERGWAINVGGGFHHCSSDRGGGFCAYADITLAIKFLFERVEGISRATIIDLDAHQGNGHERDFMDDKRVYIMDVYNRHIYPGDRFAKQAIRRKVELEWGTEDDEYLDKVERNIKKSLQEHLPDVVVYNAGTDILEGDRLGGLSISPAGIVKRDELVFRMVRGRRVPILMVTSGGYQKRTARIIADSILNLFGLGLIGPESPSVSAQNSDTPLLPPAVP

Question: Which IC50 does the source give for `O=C(NO)c1cccc2c1OC1(CC2)CCN(C(=O)Cc2ccccc2)CC1` [II-79, N-hydroxy-1′-(2-phenylacetyl)spiro[chromane-2,4′-piperidine]-8-carboxamide] here?
Answer: The IC50 was greater than 1000 nM.

Question: For `O=C(NO)c1cccc2c1CC1(CCN(CCCc3ccccc3)C1=O)C2` (stereo not shown) [II-15, N-hydroxy-2′-oxo-1′-(3-phenylpropyl)-1,3-dihydrospiro[indene-2,3′-pyrrolidine]-4-carboxamide], which IC50 is on record?
Answer: Its IC50 is greater than 1000 nM.

Question: `O=C(NO)c1cccc2c1CC1(CCN(Cc3ccc(-c4ccccc4)cc3)C1=O)C2` (stereo not shown) [II-16, 1′-([1,1′-biphenyl]-4-ylmethyl)-N-hydroxy-2′-oxo-1,3-dihydrospiro[indene-2,3′-pyrrolidine]-4-carboxamide] was tested. Which IC50 did it give?
Answer: The IC50 was less than 500 nM.

Question: For `O=C(NO)c1cccc2c1CC1(CCN(Cc3ccccc3)CC1)C2` [II-64, 1′-benzyl-N-hydroxy-1,3-dihydrospiro[indene-2,4′-piperidine]-4-carboxamide], which IC50 is on record?
Answer: The IC50 was greater than 1000 nM.

Question: How did the IC50 turn out when `COc1ccccc1CN1CCC2(Cc3cccc(C(=O)NO)c3C2)C1=O` (stereo not shown) [II-36, N-hydroxy-1′-(2-methoxybenzyl)-2′-oxo-1,3-dihydrospiro[indene-2,3′-pyrrolidine]-4-carboxamide] was run?
Answer: Its IC50 is greater than 1000 nM.

Question: With `O=C(NO)c1cccc2c1CC1(CC2)CCN(c2ccccc2C(F)(F)F)C1=O` (stereo not shown) [II-73, N-hydroxy-2′-oxo-1′-(2-(trifluoromethyl)phenyl)-3,4-dihydro-1H-spiro[naphthalene-2,3′-pyrrolidine]-8-carboxamide] as the molecule, how does the IC50 read?
Answer: Its IC50 is greater than 1000 nM.

Question: With `Cc1ccccc1CN1CCC2(Cc3cccc(C(=O)NO)c3C2)C1=O` (stereo not shown) [II-23, N-hydroxy-1′-(2-methylbenzyl)-2′-oxo-1,3-dihydrospiro[indene-2,3′-pyrrolidine]-4-carboxamide] as the molecule, how does the IC50 read?
Answer: The IC50 was greater than 1000 nM.

Question: For `O=C(NO)c1cccc2c1OC1(CC2)CCN(C(=O)c2ccc(F)cc2)CC1` [II-75, 1′-(4-fluorobenzoyl)-N-hydroxyspiro[chromane-2,4′-piperidine]-8-carboxamide], which IC50 is on record?
Answer: Its IC50 is greater than 1000 nM.

Question: `O=C(NO)c1cccc2c1CC1(CCN(C(=O)c3ccc(Cl)cc3)CC1)C2` [II-61, 1′-(4-chlorobenzoyl)-N-hydroxy-1,3-dihydrospiro[indene-2,4′-piperidine]-4-carboxamide] was tested. Which IC50 did it give?
Answer: Its IC50 is greater than 1000 nM.

Question: For `O=C(NO)c1cccc2c1CC1(CCN(Cc3ccc(-n4cccn4)nc3)C1=O)C2` (stereo not shown) [II-47, 1′-((6-(1H-pyrazol-1-yl)pyridin-3-yl)methyl)-N-hydroxy-2′-oxo-1,3-dihydrospiro[indene-2,3′-pyrrolidine]-4-carboxamide], which IC50 is on record?
Answer: The IC50 was greater than 1000 nM.

Question: Which IC50 does the source give for `O=C(NO)c1cccc2c1CCC1(CCN(Cc3ccc(Cl)c(C(F)(F)F)c3)C1=O)C2` (stereo not shown) [II-84, 1′-(4-chloro-3-(trifluoromethyl)benzyl)-N-hydroxy-2′-oxo-3,4-dihydro-1H-spiro[naphthalene-2,3′-pyrrolidine]-5-carboxamide] here?
Answer: Its IC50 is less than 500 nM.

Question: Which IC50 does the source give for `O=C(NO)c1cccc2c1CC1(CC2)CCN(Cc2ccc(C(F)(F)F)cc2)C1=O` (stereo not shown) [II-70, N-hydroxy-2′-oxo-1′-(4-(trifluoromethyl)benzyl)-3,4-dihydro-1H-spiro[naphthalene-2,3′-pyrrolidine]-8-carboxamide] here?
Answer: The IC50 was 500 to 1000 nM.

Question: For `O=C(NO)c1cccc2c1CC1(CC2)CCN(Cc2ccc(Cl)cc2)C1=O` (stereo not shown) [II-69, 1′-(4-chlorobenzyl)-N-hydroxy-2′-oxo-3,4-dihydro-1H-spiro[naphthalene-2,3′-pyrrolidine]-8-carboxamide], which IC50 is on record?
Answer: The IC50 was greater than 1000 nM.

Question: How did the IC50 turn out when `O=C(NO)c1cccc2c1CC1(CCN(Cc3cn(-c4ccccc4)nn3)C1=O)C2` (stereo not shown) [II-53] was run?
Answer: The IC50 was greater than 1000 nM.

Question: For `COc1cc(CN2CCC3(Cc4cccc(C(=O)NO)c4C3)C2=O)cc(OC)c1` (stereo not shown) [II-40, 1′-(3,5-dimethoxybenzyl)-N-hydroxy-2′-oxo-1,3-dihydrospiro[indene-2,3′-pyrrolidine]-4-carboxamide], which IC50 is on record?
Answer: Its IC50 is greater than 1000 nM.

Question: Which IC50 does the source give for `O=C(NO)c1cccc2c1CC1(CCN(CC3CCCCC3)C1=O)C2` (stereo not shown) [II-44, 1′-(cyclohexylmethyl)-N-hydroxy-2′-oxo-1,3-dihydrospiro[indene-2,3′-pyrrolidine]-4-carboxamide] here?
Answer: The IC50 was greater than 1000 nM.

Question: `Cc1ccc(N2CCC3(CCc4cccc(C(=O)NO)c4O3)CC2)cc1F` [II-83, 1′-(3-fluoro-4-methylphenyl)-N-hydroxyspiro[chromane-2,4′-piperidine]-8-carboxamide] was tested. Which IC50 did it give?
Answer: Its IC50 is greater than 1000 nM.

Question: For `CN(C)C(=O)N1CCC2(CCc3cccc(C(=O)NO)c3O2)CC1` [II-74, N8-hydroxy-N1′,N1′-dimethylspiro[chromane-2,4′-piperidine]-1′,8-dicarboxamide], which IC50 is on record?
Answer: The IC50 was greater than 1000 nM.

Question: For `O=C(NO)c1cccc2c1CC1(CCN(Cc3cccnc3)C1=O)C2` (stereo not shown) [II-24, N-hydroxy-2′-oxo-1 ‘-(pyridin-3-ylmethyl)-1,3-dihydrospiro[indene-2,3’-pyrrolidine]-4-carboxamide], which IC50 is on record?
Answer: The IC50 was greater than 1000 nM.

Question: Which IC50 does the source give for `O=C(NO)c1cccc2c1CCC1(CCN(c3ccccc3)CC1)O2` [II-92, N-hydroxy-1′-phenylspiro[chromane-2,4′-piperidine]-5-carboxamide] here?
Answer: Its IC50 is greater than 1000 nM.

Tested on: HEL 92.1.7 cells
Experiment: Cell proliferation assay (CCK8)
Format: cell-based
Conditions: HEL 92.1.7, 48 h
Protocol: (§1) This example describes inhibition of in vitro cell proliferation with exemplary HDAC11 inhibitors. The effects of selective HDAC11 inhibitors on cell proliferation were measured in cell lines containing the MPN-associated mutations MPL W515L (Ba/F3 MPL W515L) and JAK2 V617F (Ba/F3 JAK2 V617F, HEL 92.1.7, SET-2). HEL 92.1.7 and SET-2 cells were purchased from the ATCC and DSMZ, respectively. Ba/F3 cells overexpressing either MPLW515L or JAK2V617F, which were cytokine independent, were generated by transforming Ba/F3 cells with retroviruses overexpressing either MPL W515L or JAK2V617F. For survival assays, cells were seeded in 96-well plates at the density of 0.1 million/ml with addition of indicated compounds and incubated at 37° C. for 48 h. CCK8 solution (Dojindo, Rockville, Md.) was added and absorbance at 450 nm was measured after 3 hours of incubation. Readings were normalized to dimethylsulfoxide (DMSO)-treated wells.

Question: For `N#CC[C@H](C1CCCC1)n1cc(-c2ncnc3[nH]ccc23)cn1` [ruxolitinib, reference compound], which “growth of the HEL 92.1.7 cell line” value is on record?
Answer: The value was “inhibited”.

Tested on: SET-2 cells
Experiment: Cell proliferation assay (CCK8)
Format: cell-based
Conditions: SET-2 (FIG. 4 legend)
Protocol: as §1

Question: For `N#CC[C@H](C1CCCC1)n1cc(-c2ncnc3[nH]ccc23)cn1` [ruxolitinib, reference compound], which “growth of SET-2 cell line” value is on record?
Answer: Its value is “inhibited”.
